Measured values from patent US8906894B1, “Methods for preventing and treating thrombotic disorders” (priority 2000, dated 2014).

Legend:
[1] = patients; cited from earlier work
rat brain = experiment: infarct volume after middle cerebral artery occlusion (MCAO); type: in vivo
Procedure: Adult male rats weighing 200-250 g were anesthetized. Focal cerebral ischemia was induced by ligature of the left common carotid artery and occlusion of the ipsilateral distal middle cerebral artery (MCAO). […] Rats subjected to sham MCAO operation served as control. To determine infarct volume, the brains were removed 48 hours after MCAO and a series of coronal brain slices were obtained and stained with 1% 2,3,5-triphenyl-tetrazolium chloride in 0.1M phosphate buffer. The infarct volume was determined by adding the infarct volumes, which were unstained by the dye.

blood vessels [2] = experiment: vasodilation of blood vessels
NO production = experiment: stimulation of NO production
blood vessels [3] = experiment: inhibition of contraction
β-amyloid = experiment: inhibition of β-amyloid
human platelets [4] = experiment: ADP-induced human platelet aggregation, preincubation with drug; type: cell-based; conditions: data not shown
Procedure: (§1) 500 microliter of whole blood was diluted with equal volume of 0.9% sodium chloride and prewarmed at 37° C. for 5 minutes. For optical studies, platelet rich plasma blood was mixed gently and immediately centrifuged at 180 g for 10 min to obtain platelet-rich plasma (PRP). Platelet poor plasma (PPP) was obtained by centrifugation at 1800 g for 15 minutes at room temperature. The platelet concentration in the PRP was adjusted to approximately 250×10^9 cells/l using PPP. Readings were taken at 37° C. at a stirring speed of 1200 rpm.
Aggregation agonists were used at a final concentration of 2.0×10^−5 M for ADP, 0.19 mg/ml for collagen, 500 μg/ml for arachidonic acid, and 1×10^−4 M for epinephrine. During the study, optical density was continuously recorded. The 0% and 100% aggregation levels were set with PRP and PPP, respectively. The maximal percentage of platelet aggregation was calculated as the light transmission between platelet-rich and platelet-poor plasma (100%). When a stable baseline was obtained with 450 μl of PRP, 50 μl of one of the aggregation-inducing agents was added. The maximum height and slope of the aggregation curves were determined. After the electrode was immersed in the sample, platelet aggregation to various agonists (collagen, ADP, arachidonic acid or epinephrine) was measured in ohms of impedance. […]

human platelets [5] = experiment: collagen-induced human platelet aggregation, preincubation with drug; type: cell-based; conditions: 15 min preincubation; for peak aggregation: collagen (baseline around 89%)
Procedure: as §1
Aggregation agonists were used at a final concentration of 2.0×10^−5 M for ADP, 0.19 mg/ml for collagen, 500 μg/ml for arachidonic acid, and 1×10^−4 M for epinephrine. During the study, optical density was continuously recorded. The 0% and 100% aggregation levels were set with PRP and PPP, respectively. The maximal percentage of platelet aggregation was calculated as the light transmission between platelet-rich and platelet-poor plasma (100%). When a stable baseline was obtained with 450 μl of PRP, 50 μl of one of the aggregation-inducing agents was added. The maximum height and slope of the aggregation curves were determined. After the electrode was immersed in the sample, platelet aggregation to various agonists (collagen, ADP, arachidonic acid or epinephrine) was measured in ohms of impedance. The lag phase was defined as the delay time occurring between the addition of collagen and the beginning of the aggregation curve.
Blood samples were preincubated in 50 μM or 100 μM rasagiline, a MAO-B inhibitor, for 15 minutes and aggregation stimulated using collagen. […] Aggregation onset was also delayed by treatment with rasagiline.

platelets = experiment: epinephrine-induced platelet aggregation; type: cell-based, human
Excerpt: During the study, optical density was continuously recorded.

[6] = cited from earlier work

Compound	ability to dilate blood vessels (blood vessels [2])	ability to stimulate NO production (NO production)	ability to inhibit contraction (blood vessels [3])	ability to inhibit β-amyloid (β-amyloid)	also measured
CC(=O)Oc1ccccc1C(=O)O [aspirin, Acetylsalicylic acid]	–	–	–	–	relative risk reduction of CVD [1]: 25%; reduction of infarct size (rat brain; aspirin 30 mg/kg intraperitoneally 2 hours prior to MCAO, brains 48 hours after MCAO, vs untreated control): about 30%
C#CCN(C)Cc1ccccc1 [pargyline]	dilate blood vessels	stimulate NO production	inhibit contraction	inhibit β-amyloid	–
C#CCN[C@@H]1CCc2ccccc21 [rasagiline]	–	–	–	–	inhibition at 100 µM (human platelets [4]): 69%; aggregation onset (human platelets [5]; 50 μM or 100 μM, collagen): delayed; peak aggregation (human platelets [5]; 50 μM): 35%; peak aggregation (human platelets [5]; 100 μM): negligible levels
Cl.NCCNC(=O)c1ccc(Cl)cc1 [RO-16-6491, N-(2-aminoethyl)4-chlorobenzamide hydrochloride]	dilate blood vessels	stimulate NO production	inhibit contraction	inhibit β-amyloid	–
C#CCN(C)[C@H](C)Cc1ccccc1 [1-deprenyl, L-deprenyl]	dilate blood vessels	stimulate NO production	inhibit contraction	inhibit β-amyloid	dose causing rapid NO-mediated endothelium-dependent vasodilation (blood vessels [2]; low doses): ≤ 10 µM; lowest concentration with stimulatory effect on NO production (NO production): 1 µM; blood vessel disruption and bleeding (rat brain; following 1-deprenyl administration): reduced; platelet aggregation induced by epinephrine (platelets): inhibited the platelet aggregation
Cl.NCCNC(=O)c1ncsc1-c1cccc(F)c1 [RO-41-1049, N-(2-aminoethyl)-5-(3-fluorophenyl)-4-thiazolecarboxamide hydro-chloride]	dilate blood vessels	stimulate NO production	inhibit contraction	inhibit β-amyloid	–
C#CCN(C)CCCOc1ccc(Cl)cc1Cl [clorgyline]	dilate blood vessels	stimulate NO production	inhibit contraction	inhibit β-amyloid	–
COC(=O)[C@H](c1ccccc1Cl)N1CCc2sccc2C1 [clopidogrel]	–	–	–	–	share of drug converted to active metabolites in the liver ([6]; by cytochrome P450 isoforms): 15%; share of prodrug converted into inactive metabolites ([6]; in vivo): 85%
